Test [1] concerns T1, HCN channel (hyperpolarization-activated cation current, Ih, in GH3 cells).
T1 construct: gene Hcn2; native whole-cell current in GH3 pituitary cells; homo- or mixed HCN2+HCN3; PDB 5V4S is only a docking model
Put plainly: whole-cell patch clamp. The settings on record: Ih at end of 2-s step from -40 to -110 mV; Ca2+-free Tyrode with 1 μM TTX; pH 7.4; 20-25 °C; native GH3 cells. It counts as cell-based.

The test system of test [2] is T2, voltage-gated Na^+ (NaV) channels (INa in GH3 cells).
T2 construct: gene Scn1a; native whole-cell current in GH3 pituitary cells; hNaV1.7 only docked
As to the kind of experiment: whole-cell patch clamp. The settings on record: transient (peak) INa(T); 30-ms step from -100 to -10 mV; Ca2+-free Tyrode, 10 mM TEA, 0.5 mM CdCl2; pH 7.4; 20-25 °C; native GH3 cells. It counts as cell-based.

Regarding `NC(=O)OC[C@@H](O)c1ccccc1Cl` [CRS, [(2S)-2-(2-chlorophenyl)-2-hydroxyethyl] carbamate], the figures for the half-maximal inhibitory concentration (IC50) in test [1] and in test [2] were 38 µM and 56.4 µM, respectively.

These data come from article PMC10244622, “Concerted suppressive effects of carisbamate, an anti-epileptic alkyl-carbamate drug, on voltage-gated Na^+ and hyperpolarization-activated cation currents” (Frontiers in Cellular Neuroscience, 2023).
